Experimental data as given in patent US4843066A, “Novel adenosine derivatives and pharmaceutical composition containing them as an active ingredient” (priority 1986, dated 1989).
Like-named read-outs stand apart in the source and are kept apart here.

What was measured:
in vivo = details: mouse, oral, in 0.5% C.M.C., ddY male mice, death rate for 7 days
[1] = test system: spontaneously hypertensive rats (SHR); assay: Antihypertensive activity (blood pressure after oral administration); type: in vivo; details: for inhibition in vivo at 30 mg/kg / inhibition in vivo at 200 mg/kg / inhibition in vivo at 10 mg/kg: Rattus norvegicus, decrease vs before; for inhibition in vivo at 30 mg/kg / Blood pressure 2 hrs / Blood pressure 4 hrs / Blood pressure 6 hrs / inhibition in vivo at 200 mg/kg / inhibition in vivo at 10 mg/kg: SHR; for Blood pressure 2 hrs: 2 hrs after administration; for Blood pressure 2 hrs / Blood pressure 4 hrs / Blood pressure 6 hrs: mean ± S.E.; for Blood pressure 4 hrs: 4 hrs after administration; for Blood pressure 6 hrs: 6 hrs after administration
Description: The test compounds, which were dissolved or suspended in 0.5% C.M.C. aqueous solution, were orally administered to groups of 3 or 4 spontaneously hypertensive rats (SHR), weighing about 300 to 400 g. Blood pressure was measured before and 2, 4 and 6 hours after the administration.

[2] = in vivo
[3] = oral 30 mg/kg, 2 hrs, read-out: Blood pressure 2 hrs [Decrease]
[4] = oral 30 mg/kg, 4 hrs, read-out: Blood pressure 4 hrs [Decrease]
[5] = oral 30 mg/kg, 6 hrs, read-out: Blood pressure 6 hrs [Decrease]
[6] = oral 200 mg/kg, 2 hrs, read-out: Blood pressure 2 hrs [Decrease]
[7] = oral 200 mg/kg, 4 hrs, read-out: Blood pressure 4 hrs [Decrease]
[8] = oral 200 mg/kg, 6 hrs, read-out: Blood pressure 6 hrs [Decrease]

Compound	LD50 at 168 h (in vivo) [mg/kg]	inhibition in vivo at 30 mg/kg [1, 3] [%]	inhibition in vivo at 30 mg/kg [1, 4] [%]	inhibition in vivo at 30 mg/kg [1, 5] [%]	Blood pressure 2 hrs ([1]; oral 30 mg/kg) [mmHg]	Blood pressure 4 hrs ([1]; oral 30 mg/kg) [mmHg]	Blood pressure 6 hrs ([1]; oral 30 mg/kg) [mmHg]	inhibition in vivo at 200 mg/kg [1, 6] [%]	inhibition in vivo at 200 mg/kg [1, 7] [%]	inhibition in vivo at 200 mg/kg [1, 8] [%]	Blood pressure 2 hrs ([1]; oral 200 mg/kg) [mmHg]	Blood pressure 4 hrs ([1]; oral 200 mg/kg) [mmHg]	Blood pressure 6 hrs ([1]; oral 200 mg/kg) [mmHg]	other results
CNc1nc(C)nc2c1ncn2[C@@H]1O[C@H](CO)[C@@H](O)[C@H]1OC [Compound 21, 2,N^6,2'-O-trimethyladenosine]	~400	23.9	16.9	10.8	159 ± 20	172 ± 7	188 ± 8							
CNc1ncnc2c1ncn2[C@@H]1O[C@H](COC)[C@@H](O)[C@H]1O [Compound 19, N^6-5'-O-dimethyladenosine]	1300	43	27.1	26.3	122 ± 8	155 ± 7	157 ± 12							
COC[C@H]1O[C@@H](n2cnc3c(N)ncnc32)[C@H](O)[C@@H]1O [Compound 11, 5'-O-methyladenosine]	800	18.2	5.9	6.6	189 ± 3	206 ± 10	204 ± 9							
CO[C@@H]1[C@H](O)[C@@H](CO)O[C@H]1n1cnc2c(N)ncnc21 [Compound 1, 2'-O-methyladenosine]	> 2000							53.2	45.8	42.8	103 ± 21	121 ± 32	128 ± 41	
CNc1nc(C)nc2c1ncn2[C@@H]1O[C@H](COC)[C@@H](O)[C@H]1O [Compound 24, 2,N^6,5'-O-trimethyladenosine]	1320													inhibition in vivo at 10 mg/kg ([1]; oral 10 mg/kg, 2 hrs, read-out: Blood pressure 2 hrs [Decrease]): 43.3%; inhibition in vivo at 10 mg/kg ([1]; oral 10 mg/kg, 4 hrs, read-out: Blood pressure 4 hrs [Decrease]): 27%; inhibition in vivo at 10 mg/kg ([1]; oral 10 mg/kg, 6 hrs, read-out: Blood pressure 6 hrs [Decrease]): 23%; Blood pressure 2 hrs ([1]; oral 10 mg/kg): 128 ± 7 mmHg; Blood pressure 4 hrs ([1]; oral 10 mg/kg): 165 ± 7 mmHg; Blood pressure 6 hrs ([1]; oral 10 mg/kg): 174 ± 4 mmHg
Nc1ncnc2c1ncn2[C@@H]1O[C@H](CO)[C@@H](O)[C@H]1O [Adenosine, adenosine]								-6.1	1.8	-3.2	202 ± 12	187 ± 3	198 ± 4	hypotensive effect (in words) ([1]; oral administration): does not decrease blood pressure; bradycardia (side effect) [2]: Bradycardia was observed
CCO[C@@H]1[C@H](O)[C@@H](CO)O[C@H]1n1cnc2c(N)nc(C)nc21 [Compound 9, 2-methyl-2'-O-ethyladenosine]	500 to 1000	23.6	10.7	13.5	169 ± 7	197 ± 5	191 ± 9							
CO[C@H]1[C@@H](O)[C@H](n2cnc3c(N)ncnc32)O[C@@H]1CO [Compound 2, 3'-O-methyladenosine]	> 2000							41.2	29	27.2	135 ± 28	163 ± 40	167 ± 47	
